According to patent US20070060629A1, “Large conductance calcium-activated k channel opener” (priority 2003, published 2007):

tested on: isolated rabbit urinary bladder; experiment: Relaxation effect on potassium-induced contraction of isolated rabbit urinary bladder; assay type: cell-based; details: Oryctolagus cuniculus; isolated rabbit urinary bladder strips pre-contracted with high-K+ (30 mM); relaxation relative to 10^-4 M papaverine as 100%; rank A, B or C; read-out: IC50 value (50% relaxation concentration)
Method: Relaxation Effect on Potassium-Induced Contraction of Isolated Rabbit Urinary Bladder
Urinary bladder was isolated from Male NZW rabbits (body weight: 2.0-3.5 kg) and immersed in ice-cold Krebs-bicarbonate solution (in mM: 118 NaCl, 4.7 KCl, 2.55 CaCl2, 1.18 MgSO4, 1.18 KH2PO4, 24.88 NaHCO3 and 11.1 glucose). The urinary bladder was cut into longitudinal strips (5 mm length, 3-4 mm width) after mucosal layer was removed.
Preparations were mounted in organ baths containing 10 ml of Krebs solution maintained at 37° C. and gassed with 95% O2/5% CO2. Accordingly, preparations were stretched with an initial tension of 2.0±1.0 g, and changes in isometric tension were measured by force-displacement transducer. The preparations were pre-contracted by changing organ-bath solution into high-K^+ (30 mM) Krebs solution (in mM: 118 NaCl, […], 2.55 CaCl2, 1.18 MgSO4, 1.18 KH2PO4, 24.88 NaHCO3 and 11.1 glucose).
After stable tension was obtained, compounds were added into organ baths cumulatively (10^−8 M-10^−4 M). The effects of compounds were expressed as a percentage of the maximum relaxation produced by 1O^−4 M papaverine as 100%. 50% relaxation concentration (IC50) was calculated and IC50 value range (μM) of compounds of the present invention was shown in the following Table 68 with a rank of A, B or C. These ranges are as mentioned below. 3 μM≧C>1 μM≧B>0.5 μM≧A

Question: With `COC(=O)NCCNS(=O)(=O)c1ccc(-n2nc(C(F)(F)F)cc2-c2ccc(C)cc2)cc1` [Example 59, methyl {2-[({4-[5-(4-methylphenyl)-3-(trifluoromethyl)-1H-pyrazol-1-yl]phenyl}sulfonyl)amino]-ethyl}carbamate] as the compound, how does the IC50 read?
Answer: The IC50 was 1 to 3 µM.

Question: For `Cc1cccc(-n2nc(C(F)(F)F)cc2-c2ccc(C)c(S(N)(=O)=O)c2)c1` [Example 45], which IC50 is on record?
Answer: Its IC50 is 1 to 3 µM.

Question: `Cc1onc(-c2ccc(N(C)C)cc2)c1-c1ccc(S(N)(=O)=O)cc1` [Example 115] was tested. Which IC50 did it give?
Answer: Its IC50 is under 0.5 µM.

Question: Which IC50 does the source give for `Cc1onc(-c2ccccc2)c1-c1ccc(OCCO)cc1` [Example 152, 2-[4-(5-methyl-3-phenylisoxazol-4-yl)phenoxy]ethanol] here?
Answer: Its IC50 is 0.5 to 1 µM.

Question: Which IC50 does the source give for `Cc1onc(-c2ccccc2)c1-c1ccc(C(N)=O)c(O)c1` [Example 155, 2-hydroxy-4-(5-methyl-3-phenylisoxazol-4-yl)benzamide] here?
Answer: Its IC50 is 1 to 3 µM.

Question: How did the IC50 turn out when `COCCNS(=O)(=O)c1ccc(-n2nc(C(F)(F)F)cc2-c2ccc(C)cc2)cc1` [Example 30] was run?
Answer: The IC50 was 1 to 3 µM.

Question: How did the IC50 turn out when `Cc1onc(-c2cccnc2)c1-c1ccc(C(=O)NCCO)cc1` [Example 207] was run?
Answer: Its IC50 is 0.5 to 1 µM.

Question: Which IC50 does the source give for `Cc1ccc(-c2cc(C(F)(F)F)nn2-c2ccccc2)cc1S(=O)(=O)NCCO` [Example 46] here?
Answer: Its IC50 is 1 to 3 µM.

Question: With `Cc1ccc(-c2cc(C(F)(F)F)nn2-c2ccc(C(=O)NCCO)cc2)cc1` [Example 51] as the compound, how does the IC50 read?
Answer: The IC50 was 1 to 3 µM.

tested on: anesthetized rats; experiment: Inhibitory effect on the rhythmic bladder contractions induced by substance P in anesthetized rats; assay type: in vivo, rat; details: time during which frequency of rhythmic bladder contraction was completely inhibited; 0.25 mg/kg of compound, intravenous; substance P-infused anesthetized rats
Method: Inhibitory Effect on the Rhythmic Bladder Contractions Induced by Substance P in Anesthetized Rats
For the experiments, Sprague-Dawley female rats (9 to 12 weeks old) weighing between 200 to 300 g were used. After urethane anesthetization (subcutaneously administered with a dose of 1.2 g/kg), cannulae were placed in both right and left femoral veins. One intravenous catheter was used for administration of compounds, and the other was for the substance P (0.33 μg/kg/min) infusion. We also cannulated into ureter to pass urine. Polyethylene catheters were inserted into carotid artery for continuous monitoring of arterial blood pressure and heart rate. For continuous infusion, transurethral bladder catheter was inserted into the bladder through the urethra and tied in place by a ligature around the urethral orifice. One end of the catheter was attached to a pressure transducer in order to measure intravesical pressure. The other end of the catheter was used for infusion of saline into the bladder. After stabilization of blood pressure and heart rate and after the bladder was emptied, cystometry was performed by filling the bladder slowly with about 0.6 ml of saline. After about 10 minutes, intravenous infusion of substance P (0.33 μg/kg/min) was started for stabilization of the micturition reflex. Compounds were administered after stable rhythmic bladder contraction was obtained over 15 minutes. All compounds were dissolved or suspended in saline containing 0.5% Tween 80 for intravenous administration (0.1 ml/kg).
Also, pre-administration of iberiotoxin, a selective large conductance calcium-activated K channel blocker (0.15 mg/kg, intravenous administration) reduced inhibitory effect of the compounds of the present invention on the rhythmic bladder contraction.

Question: With `COC(=O)NCCNS(=O)(=O)c1ccc(-n2nc(C(F)(F)F)cc2-c2ccc(C)cc2)cc1` [Example 59, methyl {2-[({4-[5-(4-methylphenyl)-3-(trifluoromethyl)-1H-pyrazol-1-yl]phenyl}sulfonyl)amino]-ethyl}carbamate] as the compound, how does the “100% inhibiting time” value read?
Answer: The value was 5.7 min.

Question: Which “100% inhibiting time” value does the source give for `Cc1onc(-c2ccccc2)c1-c1ccc(C(=O)N[C@@H](C)CO)cc1` [Example 135, N-[(1S)-2-hydroxy-1-methylethyl]-4-(5-methyl-3-phenylisoxazol-4-yl)benzamide] here?
Answer: The value was 17.8 min.

Question: For `Cc1onc(-c2ccccc2)c1-c1ccc(S(=O)(=O)NO)cc1` [Example 171], which “100% inhibiting time” value is on record?
Answer: The value was 12.8 min.

Question: How did the “100% inhibiting time” value turn out when `Cc1onc(-c2cccnc2)c1-c1ccc(C(=O)NCCO)cc1` [Example 207] was run?
Answer: The value was 13.9 min.
